Like-named read-outs stand apart in the source and are kept apart here.
Key:
[1] = tested on: rat ventricular myocytes; assay: Contractile function of individual ventricular myocytes (line scan camera edge detection, paced at 0.5 Hz); assay type: cell-based; conditions: for +dL/dtmax, maximal rate of shortening / -dL/dtmax, maximal rate of relaxation / DS, duration of shortening / LC, maximum length change (shortening) with contraction / TPS, time-to-peak shortening / TR, time to 75% relaxation: mean ± SE, N = 6; for inhibition at 2 µM: Rattus norvegicus, Ventricular myocyte, PIA at 2 μM
Description: Primary cultures of adult rat ventricular myocytes were prepared essentially according to previously described methods (Romano et al., Am. J. Physiol. 257:H1088 (1989)). Two male Sprague-Dawley rats (Charles River, Wilmington, Mass. or Harlan, Indianapolis, Ind.) were decapitated, and the hearts were rapidly excised and constant pressure (70 cm H2) and nonrecirculated) perfused for 10 minutes through the aortas with filtered (0.45 μm membrane filter) perfusing solution (NaCl, 118 mM; glucose, 10 mM; NaHCO3 25 mM; KCl, 4.69 mM; MgSO4 1.18 mM; and KH2 PO4, 1.18 mM; (pH 7.4)), to which […] was added, at 37° C. After equilibration, the hearts were constant pressure perfused with fresh physiological saline ("PS") containing no added Ca^2+ until spontaneous contractions ceased (i.e., ~30 seconds). The hearts were then perfused for 4-10 minutes in a nonrecirculating manner with PS containing 0.73 mg/ml collagenase, 0.16 mg/ml hyaluronidase, 1 mg/ml recrystallized bovine serum albumin ("BSA") and 48.4 μM Ca^2+ at a rate of 3-4 ml/min/heart. Ventricles, free of atria, were removed from the perfusion system, cut into 8 pieces and placed in a 50 ml Erlenmeyer flask with 5 ml of PS containing 0.73 mg/ml collagenase, 0.16 mg/ml hyaluronidase, 2.5 mg/ml BSA, and 50 μM Ca^2+ (incubation solution). The flask was gently shaken (40 cycles/min) in a reciprocating water bath with continuous gassing (95% O2, 5% CO2) for 7 minutes at 37° C. The incubation solution was aspirated and this shaking procedure was repeated with fresh incubation solution 3-5 times depending on the likelihood that the tissue was ready to dissociate. After the final incubation period, the solution was aspirated and replaced with 10 ml of fresh incubation solution. The flask was then shaken rapidly (120 cycles/min) for 10 minutes with gassing to dissociate the myocytes. The flask contents were filtered through a 250 μm nylon mesh into a 50 ml polypropylene centrifuge tube, to which 40 ml of PS containing 5.95 mg/ml BSA and 99.7 μm Ca^2+ (wash solution) was gradually added.
The myocytes were allowed to settle for 15 minutes, and the upper two thirds of the wash solution was aspirated. Upon the addition of 30-35 ml of wash solution, this settling step was repeated. The wash solution was aspirated and the myocyte pellet was resuspended in 10 ml of minimum essential medium ("MEM"). The myocyte suspension was allowed to settle for 5 minutes and then brought to a final volume of 22 ml with MEM. Two milliliters of the myocyte suspension was seeded onto each of 60 mm culture dishes containing 2 ml of MEM.
The contractile function of individual myocytes was assessed by dispersing 50-100 cells in a 506 μl myocyte chamber (11×23×2 mm deep). The chamber (FIG. 1) was continuously suffused (850 μl/min) with fresh suffusion solution ("SS") in mM: 136.4 NaCl, 4.7 KCl, 1.0 CaCl2, 10 hydroxyethylpiperzine-ethanesulfonicacid (HEPES), 1.0 NaHCO3, 1.2 MgSO4, 1.2 KH2 PO4, 10 glucose, 0.6 ascorbate, 1.0 pyruvate) at 20° C. The chamber was mounted on an inverted microscope stage and contained platinum wire electrodes for initiating myocyte contraction at 0.5 Hz (voltage 10% above threshold for 5 msec duration).
The image of the myocyte was projected via an inverted microscope at 300× onto a line scan camera (Fairchild, Model 1600R) containing a linear array (1×3456) of photodiodes. When aligned with the longitudinal axis of the cell the camera detected the movement of the 2 ends of the myocyte upon contraction (shortening and relengthening). […] When the myocyte was transilluminated, both ends of the cell were easily discriminated. Myocyte length and length change with respect to time for a single contraction was measured by determining the pixels in which the appropriate transitions between light and dark occurred. The line scan camera was calibrated with a stage micrometer scaled in 10 μm divisions. The signals from the camera were directed to a Hewlett Packard computer (Model Vectra RS/20C). […]

[2] = tested on: ventricular myocyte membrane adenylyl cyclase; assay: Adenylyl cyclase activity of ventricular myocyte membranes; assay type: biochemical, rat
Description: After a 3-4 hour incubation period, myocytes were harvested by placing the culture dishes on ice; aspirating and discarding the culture medium; scraping the attached cells into 1 ml of ice cold buffer (pH 7.4) containing 10 mM HEPES and 1 mM dithiothreitol (DTT); and transferring the mixture to a 40 ml centrifuge tube. The culture dishes were rinsed twice with buffer, and the rinses were added to the centrifuge tube. The myocytes were centrifuged at 45,000 x g for 45 minutes and the supernatant was discarded. The pellet was resuspended in 40 mM HEPES (pH 7.4) to yield 3.5-4 mg protein/ml and homogenized with a small clearance Dounce tissue grinder (8 strokes). The membranes were centrifugated as described above, resuspended (3-4 mg protein/ml) in 40 mM HEPES (pH 7.4), and assayed for adenylyl cyclase activity immediately or stored at -80° C. and assayed within 10 days.
The assay system used to measure adenylyl cyclase activity minimizes the formation of endogenous adenosine. The assay used was essentially as described by Romano et al. (supra). Myocyte membranes (15-25 μg protein) were incubated in 50 μl of a buffer containing 40 mM HEPES (pH 7.4), 5 mM MgCl2, 1 mM DTT, 5.5 mM KCl, 0.1 mM 2'-deoxy-cAMP (dcAMP), 0.1 mM 2'-deoxy ATP (dATP), 20 mM phosphoenolpyruvate, 2 units pyruvate kinase, 0.25 units adenosine deaminase, 1 mM ascorbic acid, 100 mM NaCl, 0.1 mM ethyleneglycol-bis (β-aminoethylether) N,N,N',N',-tetroaceticacid (EGTA), 10 μM guanosine 5'-triphosphate (GTP), and ~2×10^6 counts/minutes of [α-^32 P]dATP for 20 minutes at 30° C. The reaction was stopped by adding 40 μl of a solution containing 2% sodium dodecyl sulfate (SDS), 45 mM ATP, 1.3 mM cAMP, and [^3 H]dcAMP (~4000 count/min) and by boiling for 2 minutes.

[3] = tested on: rat heart; assay: Isolated perfused heart, normoperfused or hypoperfused (mechanically depressed): LVP, +dP/dtmax, -dP/dtmax; conditions: atenolol; hypoperfusion
Description: Male Sprague-Dawley rats (500-550 g) were anesthetized with pentobarbital (40 mg/kg, i.p.) and treated with heparin (500 units, i.p.) for 15 minutes. Hearts were excised, rinsed in iced physiological saline ("PS") and perfused with PS (37° C.) via an aortic cannula at a constant rate of 18-20 ml/min. Perfusion pressure ranged from 50 to 60 mm Hg. The PS contained: NaCl, 118 mM; KCl, 4.7 mM; CaCl2, 2.5 mM; NaHCO3, 25 mM; KH2 PO4, 1.2 mM; MgSO4 1.2 mM; glucose 10 mM; and pyruvate 1.8 mM. The pH was maintained at 7.4 by gassing the PS with a 95% O2 /5% CO2 gas mixture. Platinum wire electrodes were inserted into the right atrium to allow pacing of the heart (300 contractions per minute) throughout the perfusion period. Developed left ventricular pressure (LVP) was measured with a saline-filled balloon inserted into the lumen of the left ventricle via the left atrium and attached by a polyethylene cannula to a pressure transducer. The pressure signal was electronically differentiated to obtain the maximum rates of left ventricular pressure development (+dP/dtmax) and relaxation (-dP/dtmax). Balloon volume was varied until the maximal obtainable dP/dt was attained. This optimal preload, ranging from 5 to 10 mm Hg, was maintained constant, permitting isovolumic contraction of the heart. Aortic perfusion pressure was monitored with another pressure transducer. All the LVP, +dP/dtmax, -dP/dtmax and aortic perfusion data were continually recorded on a multichannel polygraph. At the end of the experiment, the wet heart weights were determined; they ranged from 1.4 to 1.8 g.
After instrumentation, the hearts were normoperfused at 18-20 ml/min for 20 minutes, resulting in an aortic perfusion pressure of 50-60 mm Hg. Isoproterenol, adenosine, CGS-21680, DPCPX, atenolol, or a combination of these agents was administered for 1 to 2 minutes, via the aortic perfusion cannula, at 1/100th the perfusion flow rate, to achieve the stated PS concentrations. Isoproterenol was administered for only 5 seconds. To cause mechanical depression of the perfused hearts, the perfusion flow was lowered 5-6 ml/min. The resulting aortic perfusion pressure decreased to 20-30 mm Hg. The various agents either alone or in combination were administered via the PS to the hypoperfused hearts at 1/100th the perfusion flow rate, at the concentrations indicated.

[4] = Table 5, CGS-21680 and/or CGS-15943 at 10^-5 M, 10 min
[5] = Table 3, 1 μM PIA, 0.1 μM ISO, 0.1 μM DPCPX added sequentially every 8-10 min, maximum responses
[6] = Table 6, 10^-5 M SHA-082, 10^-5 M NECA, 10^-4 M adenosine, 2 × 10^-7 M DPCPX, 10^-5 M CGS-15943
[7] = addition of 0.1 μM DPCPX to 1 μM PIA + 0.1 μM ISO

For `N=c1[nH]c2ccc(Cl)cc2c2nc(-c3ccco3)nn12` [CGS-15943, 9-chloro-2-(2-furanyl)-5,6-dihydro-1,2,4-triazolo-(1,5-C)quinazolin-5-imine], the “effect on the adenosine induced increases in contractile variables” value ([1]; 10 μM CGS-15943, 100 μM adenosine + 0.2 μM DPCPX) was “inhibited”, the “effect on the increase in myocyte contractility produced by CGS-21680” value ([1]; CGS-15943 (10 μm), CGS-21680 (10 μm)) was “prevented” and the “+dL/dtmax, maximal rate of shortening” value [1, 4] was 146 ± 10 μm/msec. The “-dL/dtmax, maximal rate of relaxation” value [1, 4] was 123 ± 11 μm/msec, the “DS, duration of shortening” value [1, 4] was 331 ± 15 ms and the “LC, maximum length change (shortening) with contraction” value (from here on “LC, maximum length change (shortening)”) [1, 4] was 18 ± 2 μm. For the same molecule, the “TPS, time-to-peak shortening” value [1, 4] was 122 ± 3 ms, the “TR, time to 75% relaxation” value [1, 4] was 285 ± 10 ms and the “effect on the CGS-21680 increase in cyclase activity” value ([2]; 10 μM CGS-15943, 0.1 μM DPCPX present) was “prevented”. For the same molecule, the “effect on the NECA increase in membrane cyclase activity” value ([2]; CGS-15943 at 10 μM, both in the absence and presence of DPCPX) was “prevented”.

`Cn1c(=O)c2c(nc(C=Cc3cccc(Cl)c3)n2C)n(C)c1=O` [CSC, 8-(3-chlorostyryl)caffeine] was tested, and the “effect on the increase in the contractile variables elicited by 1 μM CGS-21680” value ([1]; CSC at 1 μM, in the presence of 0.2 μM DPCPX) was “prevented”.

In the case of `CC(C)NCC(O)COc1ccc(CC(N)=O)cc1` (centres unmarked) [atenolol], the “effect on the inotropic responses induced by adenosine or adenosine plus DPCPX” value [3] is reported as “did not affect” and the “effect on the isoproterenol elicited contractile responses” value [3] is reported as “completely prevented”.

With `CC(Cc1ccccc1)Nc1ncnc2c1ncn2[C@@H]1O[C@H](CO)[C@@H](O)[C@H]1O` (some centres unmarked) [PIA, phenylisopropyladenosine] the “effect on ventricular myocyte contractile variables” value ([1]; PIA at 1 μM alone) was “no effect”, the inhibition at 2 µM ([1]; ISO 0.2 μM, read-out: reduction of the ISO-induced decrease in DS) was 47% and the inhibition at 2 µM ([1]; ISO 0.2 μM, read-out: reduction of the ISO-induced decrease in TPS) was 82%. It also gave an inhibition at 2 µM ([1]; ISO 0.2 μM, read-out: reduction of the ISO-induced decrease in TR) of 37%, an inhibition at 2 µM ([1]; ISO 0.2 μM, read-out: reduction of the ISO-induced increase in +dL/dtmax) of 60% and an inhibition at 2 µM ([1]; ISO 0.2 μM, read-out: reduction of the ISO-induced increase in -dL/dtmax) of 78%. For the same molecule, the inhibition at 2 µM ([1]; ISO 0.2 μM, read-out: reduction of the ISO-induced increase in LC) was 91%, the “+dL/dtmax, maximal rate of shortening” value [1, 5] was 115 ± 17 μm/msec and the “-dL/dtmax, maximal rate of relaxation” value [1, 5] was 85 ± 21 μm/msec. The “DS, duration of shortening” value [1, 5] was 374 ± 23 ms, the “LC, maximum length change (shortening)” value [1, 5] was 16 ± 2 μm and the “TPS, time-to-peak shortening” value [1, 5] was 153 ± 5 ms. The “TR, time to 75% relaxation” value [1, 5] was 308 ± 8 ms.

For `CCCn1c(=O)c2[nH]c(C3CCCC3)nc2n(CCC)c1=O` [DPCPX, 1,3-dipropyl-8-cyclopentylxanthine], the “effect on myocyte contractility when administered alone” value ([1]; 100 μM adenosine or 0.2 μM DPCPX) was “without effect”, the “effect on the PIA reduction of the ISO induced contractile responses” value ([1]; DPCPX at 0.2 μM, ISO 0.2 μM, PIA 2 μM) was “reversed” and the “+dL/dtmax, maximal rate of shortening” value [1, 6] was 179 ± 9 μm/msec. For the same molecule, the “-dL/dtmax, maximal rate of relaxation” value [1, 6] was 147 ± 11 μm/msec, the “DS, duration of shortening” value [1, 6] was 279 ± 15 ms and the “LC, maximum length change (shortening)” value [1, 6] was 17 ± 1 μm. For the same molecule, the “TPS, time-to-peak shortening” value [1, 6] was 116 ± 3 ms, the “TR, time to 75% relaxation” value [1, 6] was 264 ± 11 ms and the “further increase of the ISO induced enhancement in +dL/dtmax” value [1, 7] was 40%. The “further increase of the ISO induced enhancement in LC” value [1, 7] was 26%, the “lowering of DS below that observed in the presence of PIA+ISO” value [1, 7] was 27% and the “effect on the PIA inhibition of ISO stimulated adenylyl cyclase activity” value ([2]; DPCPX at 0.1 μM) was “prevented”.

Source: patent US5629298A, “Adenosine as a positive inotrop in the compromised heart” (University of Massachusetts Medical Center, priority 1995, dated 1997)
